# Source: US7671050B2, “Triazolophthalazines” (NYCOMED GmbH, priority 2005, dated 2010)
# What was measured:
# [1] = tested on: HUVEC monolayers; assay: Inhibition of thrombin-stimulated macromolecule (HRP) permeability of HUVEC monolayers; assay type: cell-based, human; settings: Homo sapiens, 1 h; HUVEC on Transwells, 1 μM RP73401, 10 μM Motapizone, 1 mM SNP or 100 nM ANP, 1 U/ml thrombin, HRP passage after 60 min; read-out: Inhibition of SNP- or ANP-induced permeability, -log IC50 (converted)
# Procedure: The procedure to measure macromolecule permeability of endothelial cell monolayers followed the method described by Langeler & van Hinsbergh (1988) with modifications. Human umbilical vein endothelial cells were isolated from umbilical cords according to standard procedures (Jaffe et al. 1973) and cultured in endothelial cell basal medium (EBM) supplemented with 2% FCS, 0.5 ng/ml VEGF, 10 ng/ml bFGF, 5 ng/ml EGF, 20 ng/ml Long R3 IGF-1, 0.2 μg/ml hydrocortisone, 1 μg/ml ascorbic acid, 22.5 μg/ml heparin, 50 μg/ml gentamicin, 50 ng/ml amphotericin B (EGM2 purchased from Promocell GmbH, Heidelberg, Germany). At confluency, cells were trypsinized and replated at 73000 cells per well on 3 μm polycarbonate filter Transwell inserts (Costar GmbH, Bodenheim, Germany) precoated with 10 μg cm^2−1 Fibronectin (Sigma, Taufkirchen, Germany). HUVECs were cultured in EGM2 (100 μl in the upper wells and 600 μl in the lower wells) over four days prior the experiments and medium was changed every other day. At the day of the experiment culture medium was replaced by M199 with 1% human serum albumin. Endothelial cells were preincubated with cyclic nucleotide modifiers (the selective PDE3 inhibitor motapizone, the selective PDE4 inhibitor RP73401, the cGMP generators ANP or SNP and PDE2 inhibitors) for 15 min. HUVECs were then stimulated with Thrombin (1 U ml^−1) (Sigma, Taufkichen, Germany) and horsh radish peroxidase (5 μg/ml) (Sigma, Taufkirchen, Germany) as the macromolecule marker protein was added to the upper wells. Following 1 h incubation time Transwells were removed and the activity of horsh radish peroxidase that penetrated the endothelial cell monolayer was measured in the lower wells with the 3,3′,5,5′-tetramethylbenzidine liquid substrate system from Sigma (Taufkirchen, Germany).
# In parallel, compounds according to the invention can inhibit Thrombin-induced permeability of HUVEC monolayers for horsh radish peroxidase (HRP) as a macromolecule marker. […] The concentration-dependent inhibition of HRP permeability at different concentrations was assessed from the percent inhibition in the presence and absence of the PDE2 inhibitors and in the presence of 1 μM RP73401, 10 μM Motapizone and 100 nM ANP.
# HUVEC cells on 3 μm polycarbonate filters (Transwells) were preincubated with 1 μM RP73401 (to block PDE4) and 10 μM Motapizone (to block PDE3), 1 mM SNP or 100 nM ANP and test sample over 15 min and then stimulated with 1 U/ml thrombin. HRP passage into the lower wells was assessed after 60 min.
SMILES,melting point [°C],IC50 [1] [nM]
"COc1ccc(-c2nnc3c4ccccc4c(Nc4ccc(N5CCN(C)CC5)cc4)nn23)cc1 [Example 18, [3-(4-Methoxyphenyl)-[1,2,4]triazolo[3,4-a]phthalazin-6-yl]-[4-(4-methylpiperazin-1-yl)-phenyl]-amine]",266,7.94 to 316
"Oc1ccccc1-c1nnc2c3ccccc3c(Nc3ccc(N4CCOCC4)cc3)nn12 [Example 26, 2-[6-(4-Morpholin-4-yl-phenylamino)-[1,2,4]triazolo[3,4-a]phthalazin-3-yl]-phenol]",317,7.94 to 316
